Here are results for 24 molecules from patent US20250213700A1, “COMPOUNDS, COMPOSITIONS, AND METHODS FOR CELL-SPECIFIC PHARMACOLOGY” (Duke University, priority 2022, published 2025).

Type in all cases: cell-based, rat
The target in assay [1] is T1, HaloTag Protein (HTP) on +HTP neurons (Rhodococcus rhodochrous, UniProt P0A3G2, A155T/A167V/A172T/A224E/C128F/C176G/D78G/E160K/E257K/H272N/K175M/K195N/L47V/L88M/N227D/S58T/T264A/Y273L/Y87F).
T1 construct: SSnlg signal peptide (residues 1-49 of mouse neuroligin-1) (N); ERXL (Kir2.1 trafficking and ER export signals); expressed in transfected cells; host or cells: primary rat hippocampal neurons, electroporated with plasmid
As to the kind of experiment: biotin-HTL capture dose-response on +HTP cultured neurons. Particulars: EC 50 (nM), concentration for half-maximal capture on +HTP neurons following 15 minutes of incubation. How it is done:
(§1) Cultured neuronal assays: Preparation of hippocampal cultures: Mixed glial and neuronal cultures were prepared from the hippocampus of postnatal day 0 to 1 Sprague-Dawley rat pups. Separate pools of dissociated cells were transfected via electroporation (LONZA, V4SP-3096) with plasmid constructs, and depending on assay directives, either plated individually or mixed with a different pool of electroporated cells after a 10 min recovery period. Cells were cultured on coverslips (Deckglaser) pre-treated with high molecular weight poly-D-lysine (Sigma, P7405; 0.05 mg/mL) in 24-well plates and maintained in NbActiv4 (BrainBits, Nb4-500) at 37 C, 5% CO2. Media was changed by half at DIV3 or 4 and then weekly thereafter; experiments were performed between DIV16 to DIV18.
For any given neuronal assay, coverslips were first washed briefly in a resting BASE solution containing (in mM): 4 KCl, 2 CaCl2), 2 MgCl2, 150 NaCl, 10 HEPES, 10 glucose, pH 7.4, before transfer to a glass-bottom, 24-well imaging plate (Cellvis, P24-1.5H—N). Live cell imaging was performed on an Olympus IX83 inverted fluorescent microscope (10× objective, […].) with LED illumination for GFP (Excitation=485 nm), TR (Ex=560 nm), Cy5/Alexa647 (Ex=640 nm) and Cy7/AlexaFluor750 (Cy7=740 nm) depending on the specific assay directives.
biotin-HTL: Dissociated neurons were electroporated with either the +HTP or ddHTP construct and cultured as described above. A dilution series for both the biotin-PEG12-HTL.1 and biotin-PEG12-HTL.2 compounds was made in BASE solution containing 1% BSA (Sigma A7904), representing 12 final concentrations (in uM) between 10 and 0.001. After a brief rinse in BASE+BSA to acclimate the live neurons to room temperature and avoid temperature effects to the binding kinetics, a single coverslip was incubated in one of the twelve dilutions for 15 min, washed twice in BASE+BSA, then incubated in a 1:500 dilution of Streptavidin-AlexaFluor488 (Invitrogen) for 15 min. The neurons were rinsed four times then transferred to a glass-bottom imaging plate containing BASE+BSA. Each coverslip was imaged in its entirety by combining several 10× images (TR at 10 ms; GFP at 100 ms) together using the Olympus CellSens software stitching algorithm. A dose-response curve was created from the individual coverslips using MatLab.
To enable direct quantification of capture efficiency, commercially available HTL (i.e., HTL.1) were conjugated to biotin via a flexible polyethylene glycol linker of moderate length (PEG12), to mimic the longer (PEG36) linker typically used in an RxDART. Capture kinetics were characterized on cultured neurons expressing HTP on their surface [HTPNLG(432-648), as in, to model the cellular microenvironment of interest. Dose-response curves were performed by incubating neuronal coverslips with a given ligand for 15 min, followed by washing, fluorescent labeling of biotin, and quantification of capture. […] Thus, it was reasoned that improving HTL50 would widen the DW for any Rx cargo.

A further assay deals with endogenous GABAAR. As to the kind of experiment: all-optical assay of GABAAR positive allosteric modulation in primary neuronal culture. The method, then: as §1
Diazepam/Flumazenil: Dissociated neurons were electroporated with constructs and cultured for 2 weeks. The assay was performed in a modified GABAR-BASE, with an increased KCl concentration to enhance neuronal excitability and a lowered GABA level for a baseline. Again, a DRUG plate and three DoseGroups were used as described above for dosing, but no final WASH. […] Imaging alignment, proof-reading and analysis were performed in a similar fashion to the GABAR assay using MatLab.
Next it was sought to extend DART to allosteric modulators. The allosteric binding site of the GABAAR, known to bind several drugs, with effects ranging from negative to positive allosteric modulation was first analyzed. Diazepam represents the prototypic PAM at this site, and is the most clinically significant of the class. Thus, a diazepam analog was synthesized with a short alkyne attached to the amide of the diazepam core; an attachment site known to tolerate substituents and thought from structural inspection of the GABAAR-bound diazepam pose to allow linker access to free solution. Click chemistry was used to assemble the full-length diazepam.1DART.2 and leveraged an all-optical assay of endogenous GABAARs in primary neuronal culture, with ChR2 and GCaMP6s in the same cell.

The next assay concerns endogenous GABAARs. Description: all-optical assay of GABAAR antagonism in primary neuronal culture. Particulars: ddHTP vs +HTP cells, 15 min, 15 uM GABA. How it is done: as §1
Gabazine: Dissociated neurons were electroporated with constructs and cultured for 2 weeks. The assay was performed in the same BASE solution as described above, but with the addition of synaptic blockers CPP (NMDAR antagonist; Tocris) and NBQX (AMPAR antagonist; Abcam, ab120046) to isolate GABAR activity, and a small amount of GABA (GABAR agonist; Sigma) to ensure GABAR activity (=GABAR-BASE). […] Instead, a high dose of regular gabazine was used to completely silence any cells that may not have had realized full antagonism by the end of the assay. Imaging alignment, proof-reading and analysis were performed in a similar fashion to the AMPAR assay using MatLab.
It was next focused on blocking the GABAAR, a ubiquitous transducer of synaptic inhibition. […] The structure-activity literature of gabazine, a selective GABAAR antagonist, was explored. The core gabazine pharmacophore includes of a 3-amino, 6-phenoxy-pyridazine ring, with GABA embedded in the 2-position (2 butyric acid). Based on historical, low-potency predecessors of gabazine, a longer GABA moiety (2 pentanoic acid), and methyl substituents (e.g., 5-CH3) were explored (FIG. 2F). For each variant, the 6-phenoxy moiety was modified to make a gabazinealkyne module, which was click-conjugated to DART.2. Several variants were made, including gabazine.1^DART.2 (2 butyric acid, 5-H), gabazine.5DART.2 (2 pentanoic acid, 5-H), and gabazine.7DART.2 (2 pentanoic acid, 5-CH3). An all-optical assay of endogenous GABAARs in primary neuronal culture was then developed. […] Excitatory synapses were blocked, such that opto-stimulation with ChR2 became the only source of neural excitation.

T1 sequence (P0A3G2 other isoform, or with tags, fused parts or gaps with the stated changes): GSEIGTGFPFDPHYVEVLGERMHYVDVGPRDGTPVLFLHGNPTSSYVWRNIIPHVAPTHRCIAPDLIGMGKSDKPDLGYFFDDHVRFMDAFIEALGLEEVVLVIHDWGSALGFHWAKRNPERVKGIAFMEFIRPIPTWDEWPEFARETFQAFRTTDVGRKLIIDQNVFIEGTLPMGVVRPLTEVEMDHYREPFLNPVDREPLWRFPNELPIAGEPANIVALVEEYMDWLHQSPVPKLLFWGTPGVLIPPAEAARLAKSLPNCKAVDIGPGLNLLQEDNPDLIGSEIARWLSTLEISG

Usually EC50 stands for the concentration needed to bring the measured effect to its halfway point. Read a low EC50 as greater potency. In assay [1], `COc1cc(CCCCl)ccc1C(=O)NCCCNC(=O)c1ccc(CNC(=O)CCOCCOCCOCCOCCOCCOCCOCCOCCOCCOCCOCCOCCNC(=O)CCCC[C@@H]2SC[C@@H]3NC(=O)N[C@@H]32)cc1` [drawing 134] showed an EC50 of 280 nM.

Turning to `COc1cc(/C=C/CCCl)ccc1CCOCCNC(=O)c1ccc(CNC(=O)CCOCCOCCOCCOCCOCCOCCOCCOCCOCCOCCOCCOCCNC(=O)CCCC[C@@H]2SC[C@@H]3NC(=O)N[C@@H]32)cc1`, the response in assay [1] was half-maximal at 20 nM (EC50).

In assay [1], `O=C(CCCC[C@@H]1SC[C@@H]2NC(=O)N[C@@H]21)NCCOCCOCCOCCOCCOCCOCCOCCOCCOCCOCCOCCOCCC(=O)NCCOCCOCCCCCCCl` registered a 50% effective concentration (EC50) of 1000 nM.

In the case of `CCOc1cc(CCCCCl)ccc1OCCCCNC(=O)c1ccc(CNC(=O)CCOCCOCCOCCOCCOCCOCCOCCOCCOCCOCCOCCOCCNC(=O)CCCC[C@@H]2SC[C@@H]3NC(=O)N[C@@H]32)cc1`, in assay [1], the midpoint of the response, the EC50, lay at 70 nM.

In assay [1], `COc1cc(CCCCCl)ccc1CCOCCNC(=O)c1ccc(CNC(=O)CCOCCOCCOCCOCCOCCOCCOCCOCCOCCOCCOCCOCCNC(=O)CCCC[C@@H]2SC[C@@H]3NC(=O)N[C@@H]32)cc1` gave a concentration giving a half-maximal response (EC50) of 30 nM.

Regarding `COc1cc(CCCCI)ccc1OCCCCNC(=O)c1ccc(CNC(=O)CCOCCOCCOCCOCCOCCOCCOCCOCCOCCOCCOCCOCCNC(=O)CCCC[C@@H]2SC[C@@H]3NC(=O)N[C@@H]32)cc1`, in assay [1], the EC50 turned out to be 30 nM.

Take `CCOC(=O)c1ncn2c1CN(C)C(=O)c1cc(F)ccc1-2` [flumazenil, reference compound]: in the assay on endogenous GABAAR, the GABAAR receptor modulation result is recorded as “no receptor modulation”.

Turning to `O=C(CCCC[C@@H]1SC[C@@H]2NC(=O)N[C@@H]21)NCCOCCOCCOCCOCCOCCOCCOCCOCCOCCOCCOCCOCCC(=O)NCc1ccc(C(=O)NCCCCOc2ccc(CCCCCl)cc2O)cc1`, the EC50 in assay [1] turned out to be 30 nM.

As to `O=C(CCCC[C@@H]1SC[C@@H]2NC(=O)N[C@@H]21)NCCOCCOCCOCCOCCOCCOCCOCCOCCOCCOCCOCCOCCC(=O)NCc1ccc(C(=O)NCCCCOc2ccc(CCCCCl)cc2Cl)cc1`, the half-maximal effective concentration (EC50) in assay [1] was 100 nM.

`O=C(CCCC[C@@H]1SC[C@@H]2NC(=O)N[C@@H]21)NCCOCCOCCOCCOCCOCCOCCOCCOCCOCCOCCOCCOCCC(=O)NCc1ccc(C(=O)NCCOCCOCCCCCCCl)cc1` registered an EC50 in assay [1] of 150 nM.

On to `COc1cc(CCCCl)ccc1C(=O)NCCCNC(=O)c1ccc(CNC(=O)CCOCCOCCOCCOCCOCCOCCOCCOCCOCCOCCOCCOCCNC(=O)CCCC[C@@H]2SC[C@@H]3NC(=O)N[C@@H]32)cc1` [drawing 133], for which the EC50 in assay [1] stood at 200 nM.

`COc1c(/C=C\CCCl)cccc1OCCCCNC(=O)c1ccc(CNC(=O)CCOCCOCCOCCOCCOCCOCCOCCOCCOCCOCCOCCOCCNC(=O)CCCC[C@@H]2SC[C@@H]3NC(=O)N[C@@H]32)cc1` registered an EC50 in assay [1] of 55 nM.

As for `O=C(CCCC[C@H]1SC[C@H]2NC(=O)N[C@H]21)NCCOCCOCCOCCOCCOCCOCCOCCOCCOCCOCCOCCOCCC(=O)NCc1ccc(C(=O)NCCCCOc2ccc(CCCCCl)cc2)cc1`, the EC50 in assay [1] worked out at 110 nM.

`COc1cc(CCCCCCl)ccc1CCOCCNC(=O)c1ccc(CNC(=O)CCOCCOCCOCCOCCOCCOCCOCCOCCOCCOCCOCCOCCNC(=O)CCCC[C@@H]2SC[C@@H]3NC(=O)N[C@@H]32)cc1` displayed an EC50 in assay [1] of 4000 nM.

The molecule `COc1cc(CCCCl)ccc1C(=O)NCCCNC(=O)c1ccc(CNC(=O)CCOCCOCCOCCOCCOCCOCCOCCOCCOCCOCCOCCOCCNC(=O)CCCC[C@@H]2SC[C@@H]3NC(=O)N[C@@H]32)cc1` [drawing 135] yielded a 50% effective concentration (EC50) in assay [1] of 200 nM.

As for `COc1cc(CCCCl)ccc1OCCCCNC(=O)c1ccc(CNC(=O)CCOCCOCCOCCOCCOCCOCCOCCOCCOCCOCCOCCOCCNC(=O)CCCC[C@@H]2SC[C@@H]3NC(=O)N[C@@H]32)cc1`, the EC50 in assay [1] was 50 nM.

On to `COc1cc(CCCCl)ccc1CC(=O)NCCNC(=O)c1ccc(CNC(=O)CCOCCOCCOCCOCCOCCOCCOCCOCCOCCOCCOCCOCCNC(=O)CCCC[C@@H]2SC[C@@H]3NC(=O)N[C@@H]32)cc1`, for which the 50% effective concentration (EC50) in assay [1] is 20000 nM.

As to `O=C(CCCC[C@H]1SC[C@H]2NC(=O)N[C@H]21)NCCOCCOCCOCCOCCOCCOCCOCCOCCOCCOCCOCCOCCC(=O)NCc1ccc(C(=O)NCCCCOc2ccc(CCCCCl)cc2F)cc1`, the midpoint of the response in assay [1], the EC50, lay at 45 nM.

In turn, `COc1cc(CCCCl)ccc1CCOCCNC(=O)c1ccc(CNC(=O)CCOCCOCCOCCOCCOCCOCCOCCOCCOCCOCCOCCOCCNC(=O)CCCC[C@@H]2SC[C@@H]3NC(=O)N[C@@H]32)cc1` gave an EC50 in assay [1] of 10 nM.

For the molecule `CN1C(=O)CN=C(c2ccccc2)c2cc(Cl)ccc21` [diazepam, reference compound], the “effect on +HTP vs ddHTP cells” value in the assay on endogenous GABAAR (traditional (non-DART) version) is “equally affected”.

In assay [1], `O=C(CCCC[C@@H]1SC[C@@H]2NC(=O)N[C@@H]21)NCCOCCOCCOCCOCCOCCOCCOCCOCCOCCOCCOCCOCCC(=O)NCc1ccc(C(=O)NCCCCOc2ccc(CCCCCl)cc2OC(F)(F)F)cc1` had an EC50 of 1500 nM.

`Nc1cc(CCCCCl)ccc1OCCCCNC(=O)c1ccc(CNC(=O)CCOCCOCCOCCOCCOCCOCCOCCOCCOCCOCCOCCOCCNC(=O)CCCC[C@H]2SC[C@H]3NC(=O)N[C@H]32)cc1` yielded an EC50 in assay [1] of 70 nM.

Consider `COc1cc(CCCCl)ccc1CCOCCNC(=O)c1ccc(CNC(=O)CCOCCOCCOCCOCCOCCOCCOCCOCCOCCOCCOCCOCCOCCOCCOCCOCCOCCOCCOCCOCCOCCOCCOCCOCCOCCOCCOCCOCCOCCOCCOCCOCCOCCOCCOCCOCCn2cc(COCCOCCOCCOCCOCCOCCOCCCCCCOc3ccc(-c4ccc(=N)n(CCCCC(=O)O)n4)cc3)nn2)cc1` [gabazine.5^DART.2], for which the “DW (t=15 m)” value with endogenous GABAARs is listed as 1,500.

For the molecule `COc1cc(CCCCBr)ccc1OCCCCNC(=O)c1ccc(CNC(=O)CCOCCOCCOCCOCCOCCOCCOCCOCCOCCOCCOCCOCCNC(=O)CCCC[C@@H]2SC[C@@H]3NC(=O)N[C@@H]32)cc1`, the half-maximal effective concentration (EC50) in assay [1] was found to be 30 nM.
